Measured values taken from patent US9815796B2 (Merck Sharp & Dohme Corp., priority 2013, dated 2017).
Read-outs that look alike come from different tables or passages of the source.

Key:
Rhesus PDE2A3 = Rhesus PDE2A3 (Macaca mulatta, UniProt B3VTJ2); assay: PDE2 fluorescence polarization (IMAP FP) inhibition assay, rhesus enzyme; type: biochemical, rhesus macaque
Outline: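 Rhesus PDE2A3 came from lysate of transiently transfected AD293 cells, diluted to give 20% substrate conversion. Substrate was 50 nM FAM-cAMP with 1 uM cGMP activator in Tris pH 7.2/MgCl2 buffer, run 60 min at room temperature over 10-point 3-fold dilutions in 1% DMSO. Read-out was IMAP fluorescence polarization (mP) after ≥1 h binding.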

human PDE2A1 = human PDE2A1 (Homo sapiens (Human), UniProt O00408); assay: IMAP FP PDE selectivity panel, human PDE2A1; type: biochemical
human PDE2A1, sequence (O00408 other isoform, or with tags, fused parts or gaps): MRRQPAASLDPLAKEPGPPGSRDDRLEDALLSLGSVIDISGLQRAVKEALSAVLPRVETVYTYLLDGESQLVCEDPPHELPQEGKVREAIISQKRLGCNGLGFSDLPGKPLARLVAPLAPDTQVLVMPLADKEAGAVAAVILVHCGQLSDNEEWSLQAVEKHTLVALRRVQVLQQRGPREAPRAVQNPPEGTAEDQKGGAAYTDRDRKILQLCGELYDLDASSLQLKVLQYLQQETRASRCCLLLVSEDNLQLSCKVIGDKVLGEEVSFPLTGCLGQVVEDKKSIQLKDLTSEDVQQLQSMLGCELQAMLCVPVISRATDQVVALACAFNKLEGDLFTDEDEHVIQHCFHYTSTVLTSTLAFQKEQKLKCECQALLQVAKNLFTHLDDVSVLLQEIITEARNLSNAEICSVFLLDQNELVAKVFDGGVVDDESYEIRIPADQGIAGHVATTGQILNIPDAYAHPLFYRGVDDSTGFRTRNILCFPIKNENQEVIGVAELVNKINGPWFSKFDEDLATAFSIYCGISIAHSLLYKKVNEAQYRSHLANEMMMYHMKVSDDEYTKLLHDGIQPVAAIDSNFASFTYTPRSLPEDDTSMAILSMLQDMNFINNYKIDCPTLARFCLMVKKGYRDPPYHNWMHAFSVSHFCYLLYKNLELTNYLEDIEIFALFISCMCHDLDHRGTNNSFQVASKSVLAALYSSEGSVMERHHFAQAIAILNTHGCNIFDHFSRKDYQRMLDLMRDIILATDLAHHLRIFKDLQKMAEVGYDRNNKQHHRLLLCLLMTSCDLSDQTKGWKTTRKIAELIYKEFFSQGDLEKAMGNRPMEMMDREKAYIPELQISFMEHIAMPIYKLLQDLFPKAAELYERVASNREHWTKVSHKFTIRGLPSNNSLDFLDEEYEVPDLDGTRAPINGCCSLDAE
Outline: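 GST-tagged human PDE2A1 expressed in insect cells, run at room temperature for 60 min with 50 nM FAM-cAMP containing 1000 nM cGMP, pH 7.2 Tris/MgCl2 buffer. IMAP fluorescence polarization read after binding step.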

[1] = Rhesus PDE2, Lab B, read-out: Rhesus PDE2 Ki (nM) - Lab B
[2] = Human PDE2, Lab B, read-out: Human PDE2 Ki (nM) - Lab B
[3] = Rhesus PDE2, Lab A, read-out: Rhesus PDE2 Ki (nM) - Lab A
[4] = Human PDE2, Lab A, read-out: Human PDE2 Ki (nM) - Lab A

Rhesus PDE2A3, sequence (B3VTJ2 1-941): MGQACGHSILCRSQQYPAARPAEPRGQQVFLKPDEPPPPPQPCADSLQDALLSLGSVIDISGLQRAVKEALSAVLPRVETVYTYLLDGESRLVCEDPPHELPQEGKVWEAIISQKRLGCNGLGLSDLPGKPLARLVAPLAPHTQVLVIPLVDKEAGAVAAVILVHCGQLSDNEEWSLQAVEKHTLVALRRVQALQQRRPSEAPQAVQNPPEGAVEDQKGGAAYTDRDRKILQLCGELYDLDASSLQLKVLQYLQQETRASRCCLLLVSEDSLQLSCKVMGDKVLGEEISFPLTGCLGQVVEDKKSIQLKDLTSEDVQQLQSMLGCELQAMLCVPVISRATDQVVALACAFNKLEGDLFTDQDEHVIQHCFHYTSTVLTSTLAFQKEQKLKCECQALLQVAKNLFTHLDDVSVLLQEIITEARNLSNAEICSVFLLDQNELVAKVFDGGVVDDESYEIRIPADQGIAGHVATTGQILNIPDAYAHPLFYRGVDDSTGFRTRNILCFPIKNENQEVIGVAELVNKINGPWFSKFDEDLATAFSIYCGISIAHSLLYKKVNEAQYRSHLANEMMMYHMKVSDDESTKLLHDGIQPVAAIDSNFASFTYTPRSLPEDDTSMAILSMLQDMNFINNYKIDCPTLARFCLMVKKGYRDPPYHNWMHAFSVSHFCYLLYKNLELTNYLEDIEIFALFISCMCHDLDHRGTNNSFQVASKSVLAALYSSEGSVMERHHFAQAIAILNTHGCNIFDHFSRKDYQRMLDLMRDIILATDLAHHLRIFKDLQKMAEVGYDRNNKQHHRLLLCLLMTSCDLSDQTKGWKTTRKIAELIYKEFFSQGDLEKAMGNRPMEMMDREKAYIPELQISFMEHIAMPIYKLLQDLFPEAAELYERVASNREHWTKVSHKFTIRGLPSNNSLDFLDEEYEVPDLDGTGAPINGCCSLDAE

Row | SMILES | Ki (Rhesus PDE2A3; [1]) [nM] | Ki (human PDE2A1; [2]) [nM] | Ki (Rhesus PDE2A3; [3]) [nM] | Ki (human PDE2A1; [4]) [nM]
1 | CC[C@@H](NC(=O)c1cc(=O)[nH]c(Cc2ccc(OC)cc2)n1)c1ccc(OC(F)(F)F)c(F)c1 [Example 484, N-{(1R)-1-[3-fluoro-4-(trifluoromethoxy)phenyl]propyl}-2-(4-methoxybenzyl)-6-oxo-1,6-dihydropyrimidine-4-carboxamide] | 1.3 | 1.4 | – | –
2 | CC1(C(NC(=O)c2cc(=O)[nH]c(-c3ncccn3)n2)c2ccc(SC(F)(F)F)c(F)c2)CC1 (single isomer, unassigned) [Example 709, (R)- or (S)-N-((3-fluoro-4-((trifluoromethyl)thio)phenyl)(1-methylcyclopropyl)methyl)-6-oxo-1,6-dihydro-[2,2′-bipyrimidine]-4-carboxamide] | 8.1 | 7.4 | – | –
3 | CC1(c2ccc(C(NC(=O)c3cc(=O)[nH]c(-c4ncccn4)n3)C(C)(C)C)cc2F)CC1 (single isomer, unassigned) [Example 717, (R)- or (S)-N-(1-(3-fluoro-4-(1-methylcyclopropyl)phenyl)-2,2-dimethylpropyl)-6-oxo-1,6-dihydro-[2,2′-bipyrimidine]-4-carboxamide] | 17 | 14 | – | –
4 | COc1ccc(C(C)(C)c2nc(C(=O)N[C@@H](c3ccc(SC(F)(F)F)c(F)c3)C3CC3)cc(=O)[nH]2)cc1 [Example 497, N-[(R)-cyclopropyl{3-fluoro-4-[(trifluoromethyl)sulfanyl]phenyl}methyl]-2-[1-(4-methoxyphenyl)-1-methylethyl]-6-oxo-1,6-dihydropyrimidine-4-carboxamide] | 80 | 60 | – | –
5 | Cc1nc(C(=O)N[C@@H](c2ccc(SC(F)(F)F)cc2)C2CC2)cc(=O)[nH]1 [Example 41, N-[(R)-cyclopropyl{4-[(trifluoromethyl)sulfanyl]phenyl}methyl]-2-methyl-6-oxo-1,6-dihydropyrimidine-4-carboxamide] | – | – | 9.2 | 5.2
6 | O=C(NC1(c2ccc(OC(F)(F)F)c(F)c2)CC1)c1cc(=O)[nH]c(C2CC2)n1 [Example 201] | – | – | 4.4 | 2.8
7 | COc1ccc(Cc2nc(C(=O)N[C@@H](c3ccc(C(F)(F)F)cc3)C3CC3)cc(=O)[nH]2)cc1 [Example 481, N-{(R)-cyclopropyl[4-(trifluoromethyl)phenyl]methyl}-2-(4-methoxybenzyl)-6-oxo-1,6-dihydropyrimidine-4-carboxamide] | 1.9 | 1.9 | – | –
8 | CC[C@@H](NC(=O)c1cc(=O)[nH]c(C)n1)c1ccc(OC(F)(F)F)c(F)c1 [Example 39, N-{(1R)-1-[3-fluoro-4-(trifluoromethoxy)phenyl]propyl}-2-methyl-6-oxo-1,6-dihydropyrimidine-4-carboxamide] | – | – | 17 | 8.8
9 | O=C(NC1(c2ccc(C(F)(F)F)c(F)c2)CC1)c1cc(=O)[nH]c(C2CC2)n1 [Example 202, 2-cyclopropyl-N-{1-[3-fluoro-4-(trifluoromethyl)phenyl]cyclopropyl}-6-oxo-1,6-dihydropyrimidine-4-carboxamide] | – | – | 7.3 | 3
10 | Cc1nc(C(=O)N[C@@H](c2ccc(SC(F)(F)F)cc2)C(C)C)cc(=O)[nH]1 [Example 30, 2-methyl-N-[(1R)-2-methyl-1-{4-[(trifluoromethyl)sulfanyl]phenyl}propyl]-6-oxo-1,6-dihydropyrimidine-4-carboxamide] | – | – | 3.2 | 2.2
11 | COc1ccc(Cc2nc(C(=O)NC3(c4ccc(C(F)(F)F)cc4)CC3)cc(=O)[nH]2)cc1OC [Example 3, 2-(3,4-dimethoxybenzyl)-6-oxo-N-{1-[4-(trifluoromethyl)phenyl]-cyclopropyl}-1,6-dihydropyrimidine-4-carboxamide] | – | – | 0.54 | 0.45
12 | CC[C@@H](NC(=O)c1cc(=O)[nH]c(C(C)(C)c2ccc(OC)cc2)n1)c1ccc(SC(F)(F)F)cc1 [Example 495, 2-[1-(4-methoxyphenyl)-1-methylethyl]-6-oxo-N-[(1R)-1-{4-[(trifluoromethyl)sulfanyl]phenyl}propyl]-1,6-dihydropyrimidine-4-carboxamide] | 54 | 45 | – | –
13 | CC(C)(C)[C@@H](NC(=O)c1cc(=O)[nH]c(C2CC2)n1)c1ccc(C(F)(F)F)c(F)c1 [Example 438, 2-cyclopropyl-N-{(1R)-1-[3-fluoro-4-(trifluoromethyl)phenyl]-2,2-dimethylpropyl}-6-oxo-1,6-dihydropyrimidine-4-carboxamide] | 1.5 | 1.3 | – | –
14 | COc1ccc(Cc2nc(C(=O)N[C@@H](c3ccc(SC(F)(F)F)cc3)C(C)(C)C)cc(=O)[nH]2)cc1 [Example 465, N-[(1R)-2,2-dimethyl-1-{4-[(trifluoromethyl)sulfanyl]phenyl}propyl]-2-(4-methoxybenzyl)-6-oxo-1,6-dihydropyrimidine-4-carboxamide] | 0.62 | 0.62 | – | –
15 | Cc1nc(C(=O)N[C@@H](c2ccc(C(F)(F)F)c(F)c2)C2CC2)cc(=O)[nH]1 [Example 68, N-{(R)-cyclopropyl[3-fluoro-4-(trifluoromethyl)phenyl]methyl}-2-methyl-6-oxo-1,6-dihydropyrimidine-4-carboxamide] | – | – | 26 | 17

Further lines, results first:

Row | Ki (Rhesus PDE2A3; [1]) [nM] | Ki (human PDE2A1; [2]) [nM] | Ki (Rhesus PDE2A3; [3]) [nM] | Ki (human PDE2A1; [4]) [nM] | SMILES
16 | 71 | 65 | 29 | – | COc1cc(CNC(=O)c2cc(=O)[nH]c(-c3ccccc3)n2)cc(OC)c1OC [Example 338, 6-oxo-2-phenyl-N-(3,4,5-trimethoxybenzyl)-1,6-dihydropyrimidine-4-carboxamide]
17 | 12 | 9.8 | – | – | O=C(N[C@@H](c1ccc(SC(F)(F)F)c(F)c1)C1CC1)c1cc(=O)[nH]c(-c2ccccc2)n1 [Example 417, N-[(R)-cyclopropyl{3-fluoro-4-[(trifluoromethyl)sulfanyl]phenyl}methyl]-6-oxo-2-phenyl-1,6-dihydropyrimidine-4-carboxamide]
18 | – | – | 84 | 16 | COCc1nc(C(=O)N[C@H](C)c2ccc(OC(F)(F)F)cc2)cc(=O)[nH]1 [Example 113, 2-(methoxymethyl)-6-oxo-N-{(1R)-1-[4-(trifluoromethoxy)phenyl]ethyl}-1,6-dihydropyrimidine-4-carboxamide]
19 | 5.2 | 5.8 | – | – | C[C@@H](NC(=O)c1cc(=O)[nH]c(-c2ccccc2)n1)c1ccc(S(F)(F)(F)(F)F)cc1 [Example 401, 6-oxo-N-{(1R)-1-[4-(pentafluoro-λ^6-sulfanyl)phenyl]ethyl}-2-phenyl-1,6-dihydropyrimidine-4-carboxamide]
20 | – | – | 91 | 76 | Cc1nc(C(=O)N[C@H](C)c2ccc(OC(F)F)cc2)cc(=O)[nH]1 [Example 304, (R)-N-(1-(4-(difluoromethoxy)phenyl)ethyl)-2-methyl-6-oxo-1,6-dihydropyrimidine-4-carboxamide]
21 | – | – | 5.1 | 3 | CC(C)[C@@H](NC(=O)c1cc(=O)[nH]c(-c2ncccn2)n1)c1ccc(OC(F)(F)F)cc1 [Example 75, N-{(1R)-2-methyl-1-[4-(trifluoromethoxy)phenyl]propyl}-6-oxo-1,6-dihydro-2,2′-bipyrimidine-4-carboxamide]
22 | – | – | 20 | 20 | C[C@@H](NC(=O)c1cc(=O)[nH]c(-c2ccccc2)n1)c1cc(F)c(C(F)(F)F)c(F)c1 [Example 184, N-{(1R)-1-[3,5-difluoro-4-(trifluoromethyl)phenyl]ethyl}-6-oxo-2-phenyl-1,6-dihydropyrimidine-4-carboxamide]
23 | – | – | 11 | 10 | C[C@@H](NC(=O)c1cc(=O)[nH]c(-c2ncccn2)n1)c1ccc(C(F)(F)F)cc1 [Example 291, 6-oxo-N-{(1R)-1-[4-(trifluoromethyl)phenyl]ethyl}-1,6-dihydro-2,2′-bipyrimidine-4-carboxamide]
24 | 25 | 35 | 22 | – | CCc1ccc(C(C)NC(=O)c2cc(=O)[nH]c(-c3ncccn3)n2)cc1 (stereo not shown) [Example 79, N-[1-(4-ethylphenyl)ethyl]-6-oxo-1,6-dihydro-2,2′-bipyrimidine-4-carboxamide]
25 | 150 | 117 | 68 | – | O=C(NCc1ccc(C(F)(F)F)cc1)c1cc(=O)[nH]c(-c2ccccc2)n1 [Example 371, 6-oxo-2-phenyl-N-[4-(trifluoromethyl)benzyl]-1,6-dihydropyrimidine-4-carboxamide]
26 | 2.9 | 2.3 | – | – | C[C@@H](NC(=O)c1cc(=O)[nH]c(-c2ccccc2)n1)c1ccc(SC(F)(F)F)c(F)c1 [Example 398, N-[(1R)-1-{3-fluoro-4-[(trifluoromethyl)sulfanyl]phenyl}eth-yl]-6-oxo-2-phenyl-1,6-dihydropyrimidine-4-carboxamide]
27 | 4 | 3.8 | 2.6 | – | CC[C@@H](NC(=O)c1cc(=O)[nH]c(-c2ncccn2)n1)c1ccc(S(F)(F)(F)(F)F)cc1 [Example 257, 6-oxo-N-{(1R)-1-[4-(pentafluoro-λ^6-sulfanyl)phenyl]propyl}-1,6-dihydro-2,2′-bipyrimidine-4-carboxamide]
28 | 48 | 48 | 50 | 33 | Cc1nc(C(=O)N[C@H](C)c2ccc(C(F)(F)F)cc2)cc(=O)[nH]1 [Example 13, 2-methyl-6-oxo-N-{(1R)-1-[4-(trifluoromethyl)phenyl]ethyl}-1,6-dihydropyrimidine-4-carboxamide]
29 | 9.6 | 8.1 | – | – | COc1cc(OC(F)(F)F)ccc1C(C)NC(=O)c1cc(=O)[nH]c(-c2ccccc2)n1 (stereo not shown) [Example 387, N-{1-[2-methoxy-4-(trifluoromethoxy)phenyl]ethyl}-6-oxo-2-phenyl-1,6-dihydropyrimidine-4-carboxamide]
